Test [1] deals with T1, Histone-lysine N-methyltransferase NSD3 (Homo sapiens) (UniProt Q9BZ95).
T1 sequence (whole entry): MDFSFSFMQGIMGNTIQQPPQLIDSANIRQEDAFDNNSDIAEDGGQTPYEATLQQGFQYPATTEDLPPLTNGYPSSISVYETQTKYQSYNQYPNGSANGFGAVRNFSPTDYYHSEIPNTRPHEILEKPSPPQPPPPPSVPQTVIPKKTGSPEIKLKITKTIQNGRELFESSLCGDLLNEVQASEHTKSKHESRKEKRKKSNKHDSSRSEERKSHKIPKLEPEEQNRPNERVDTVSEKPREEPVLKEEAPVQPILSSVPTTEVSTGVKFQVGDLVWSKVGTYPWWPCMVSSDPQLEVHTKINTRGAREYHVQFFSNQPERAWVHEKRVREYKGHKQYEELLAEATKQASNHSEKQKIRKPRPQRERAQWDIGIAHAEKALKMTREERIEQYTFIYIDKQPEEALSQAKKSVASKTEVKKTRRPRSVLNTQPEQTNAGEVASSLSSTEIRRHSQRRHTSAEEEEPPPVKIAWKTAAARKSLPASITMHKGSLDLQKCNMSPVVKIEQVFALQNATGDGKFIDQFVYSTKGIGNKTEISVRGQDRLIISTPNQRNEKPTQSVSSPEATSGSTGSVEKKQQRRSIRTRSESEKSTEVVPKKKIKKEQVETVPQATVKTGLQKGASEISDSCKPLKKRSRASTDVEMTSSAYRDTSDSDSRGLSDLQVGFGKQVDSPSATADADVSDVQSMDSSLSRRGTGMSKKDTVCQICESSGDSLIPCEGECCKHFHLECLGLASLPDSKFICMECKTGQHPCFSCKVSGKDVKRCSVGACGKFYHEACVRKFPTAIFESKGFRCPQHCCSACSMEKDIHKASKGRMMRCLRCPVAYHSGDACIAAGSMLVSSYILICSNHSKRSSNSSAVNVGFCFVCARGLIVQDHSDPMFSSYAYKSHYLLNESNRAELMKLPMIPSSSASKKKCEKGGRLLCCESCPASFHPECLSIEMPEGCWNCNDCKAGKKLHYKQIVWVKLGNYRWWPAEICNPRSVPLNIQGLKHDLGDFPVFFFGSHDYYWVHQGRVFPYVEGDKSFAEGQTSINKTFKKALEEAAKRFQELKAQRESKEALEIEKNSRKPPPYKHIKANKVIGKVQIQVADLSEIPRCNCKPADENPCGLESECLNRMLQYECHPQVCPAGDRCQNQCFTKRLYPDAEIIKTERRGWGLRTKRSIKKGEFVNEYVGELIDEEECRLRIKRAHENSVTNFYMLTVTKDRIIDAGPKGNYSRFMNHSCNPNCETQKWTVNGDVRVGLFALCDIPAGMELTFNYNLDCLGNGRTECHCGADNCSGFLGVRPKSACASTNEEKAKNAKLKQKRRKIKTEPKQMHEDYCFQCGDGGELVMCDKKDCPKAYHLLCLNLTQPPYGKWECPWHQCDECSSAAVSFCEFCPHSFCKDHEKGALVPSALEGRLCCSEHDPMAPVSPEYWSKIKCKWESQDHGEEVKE
Briefly: Selectivity interaction (Methyltransferase screen (radiometric assays, panel of 8 PRMTs, 21 protein lysine methyltransferases, 3 DNA methyltransferases, and one RNA methyltransferase)) EUB0000271b NSD3.

In test [2] the target is Eukaryotic translation initiation factor 2-alpha kinase 1 (Homo sapiens) (UniProt Q9BQI3). The experiment in a line: Selectivity interaction (KinomeScan (DiscoverX)) EUB0000666a EIF2AK1. The settings on record: at 10 µM.
Chain of Eukaryotic translation initiation factor 2-alpha kinase 1 (Homo sapiens) (Q9BQI3 whole entry): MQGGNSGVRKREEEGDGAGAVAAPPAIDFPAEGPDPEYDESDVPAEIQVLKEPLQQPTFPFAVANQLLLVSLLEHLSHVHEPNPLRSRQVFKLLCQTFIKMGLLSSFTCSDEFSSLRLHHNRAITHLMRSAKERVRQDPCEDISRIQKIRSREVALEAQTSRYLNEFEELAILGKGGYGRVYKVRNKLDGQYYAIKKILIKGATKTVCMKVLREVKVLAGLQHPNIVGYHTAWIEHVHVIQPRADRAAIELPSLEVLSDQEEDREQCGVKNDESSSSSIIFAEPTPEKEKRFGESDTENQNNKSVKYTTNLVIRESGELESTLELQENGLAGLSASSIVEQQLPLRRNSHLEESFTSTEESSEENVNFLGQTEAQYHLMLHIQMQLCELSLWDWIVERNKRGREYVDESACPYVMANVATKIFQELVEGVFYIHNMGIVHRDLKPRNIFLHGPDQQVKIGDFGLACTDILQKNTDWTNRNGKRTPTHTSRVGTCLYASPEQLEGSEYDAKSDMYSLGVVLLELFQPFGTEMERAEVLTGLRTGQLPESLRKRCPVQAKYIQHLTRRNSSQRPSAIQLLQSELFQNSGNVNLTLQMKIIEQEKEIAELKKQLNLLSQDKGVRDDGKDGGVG
The subject of test [3] is Tyrosine-protein kinase ABL1 (Homo sapiens), P00519 [T315I]. The experiment in a line: Selectivity interaction (KinomeScan (DiscoverX)) EUB0000666a ABL1. The settings on record: at 10 µM.
Test [4] concerns the target Cyclin-dependent kinase 9 (Homo sapiens, UniProt P50750). The experiment in a line: Selectivity interaction (SelectScreen Kinase Profiling (Thermo Fisher Scientific)) EUB0001558a CDK9. The conditions noted are these: at 1 µM.
Test [5] addresses Serine/threonine-protein kinase OSR1 (Homo sapiens) (UniProt O95747). The experiment in a line: Selectivity interaction (Kinase panel (DSF assay)) EUB0001558a OXSR1.
Test [6] concerns the target Tyrosine-protein kinase Fyn (Homo sapiens) (UniProt P06241). Briefly: Selectivity interaction (ActivX KiNativ screen (kinase selectivity in THP-1 cell lysates)) EUB0000639a FYN. Format: subcellular. The settings on record: lysate, at 0.01 µM.
Test [7] deals with T2, Tyrosine-protein kinase receptor TYRO3 (Homo sapiens) (UniProt Q06418).
T2 sequence (whole entry): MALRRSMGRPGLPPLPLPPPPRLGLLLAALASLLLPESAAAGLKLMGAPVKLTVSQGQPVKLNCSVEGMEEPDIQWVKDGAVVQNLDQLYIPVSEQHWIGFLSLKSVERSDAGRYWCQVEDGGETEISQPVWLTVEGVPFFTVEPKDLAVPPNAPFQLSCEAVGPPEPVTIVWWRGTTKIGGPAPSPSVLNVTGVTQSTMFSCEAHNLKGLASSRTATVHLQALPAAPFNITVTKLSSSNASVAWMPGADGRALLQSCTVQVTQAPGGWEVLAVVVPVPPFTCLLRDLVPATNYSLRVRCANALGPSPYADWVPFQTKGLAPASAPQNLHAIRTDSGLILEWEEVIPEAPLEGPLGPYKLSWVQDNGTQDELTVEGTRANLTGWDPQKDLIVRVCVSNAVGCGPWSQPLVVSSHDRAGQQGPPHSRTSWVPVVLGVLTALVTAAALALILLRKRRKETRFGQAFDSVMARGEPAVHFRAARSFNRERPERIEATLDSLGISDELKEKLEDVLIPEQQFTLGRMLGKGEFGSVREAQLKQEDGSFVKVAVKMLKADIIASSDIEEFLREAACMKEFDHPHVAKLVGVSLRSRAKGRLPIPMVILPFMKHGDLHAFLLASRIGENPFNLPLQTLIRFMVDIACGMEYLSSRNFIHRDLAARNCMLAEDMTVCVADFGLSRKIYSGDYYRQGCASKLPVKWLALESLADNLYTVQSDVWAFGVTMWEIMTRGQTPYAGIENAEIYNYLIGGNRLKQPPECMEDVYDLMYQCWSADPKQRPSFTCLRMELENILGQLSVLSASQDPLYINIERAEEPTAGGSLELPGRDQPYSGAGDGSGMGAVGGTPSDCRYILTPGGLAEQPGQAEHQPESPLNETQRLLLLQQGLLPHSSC
Briefly: Selectivity interaction (KinomeScan (DiscoverX)) EUB0000045b TYRO3.

Chain of Cyclin-dependent kinase 9 (P50750 whole entry): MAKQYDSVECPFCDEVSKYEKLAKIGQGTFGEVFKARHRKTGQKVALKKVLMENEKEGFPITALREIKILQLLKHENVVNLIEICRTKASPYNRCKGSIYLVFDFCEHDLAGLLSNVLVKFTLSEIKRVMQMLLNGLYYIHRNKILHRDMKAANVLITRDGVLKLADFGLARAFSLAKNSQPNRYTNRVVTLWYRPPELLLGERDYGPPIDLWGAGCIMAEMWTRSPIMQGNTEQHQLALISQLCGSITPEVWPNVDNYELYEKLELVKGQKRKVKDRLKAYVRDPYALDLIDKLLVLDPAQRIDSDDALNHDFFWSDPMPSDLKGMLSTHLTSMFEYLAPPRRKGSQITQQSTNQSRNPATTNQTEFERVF
Chain of Tyrosine-protein kinase Fyn (Homo sapiens) (P06241 2-537 limits assumed): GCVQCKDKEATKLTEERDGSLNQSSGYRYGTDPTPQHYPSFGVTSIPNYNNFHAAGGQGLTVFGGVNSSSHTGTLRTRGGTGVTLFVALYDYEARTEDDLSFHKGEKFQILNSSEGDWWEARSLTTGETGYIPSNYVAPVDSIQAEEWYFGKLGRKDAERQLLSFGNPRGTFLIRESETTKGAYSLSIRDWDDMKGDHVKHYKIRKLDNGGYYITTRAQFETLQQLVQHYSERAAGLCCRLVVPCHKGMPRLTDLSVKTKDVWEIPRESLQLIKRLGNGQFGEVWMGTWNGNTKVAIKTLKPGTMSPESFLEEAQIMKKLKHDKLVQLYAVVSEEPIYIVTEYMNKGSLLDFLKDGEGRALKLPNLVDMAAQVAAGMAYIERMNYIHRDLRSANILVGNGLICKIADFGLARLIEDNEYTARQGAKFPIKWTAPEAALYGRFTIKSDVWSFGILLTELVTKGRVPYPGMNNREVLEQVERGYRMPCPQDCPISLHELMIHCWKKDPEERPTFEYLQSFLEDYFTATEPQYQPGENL
Chain of Serine/threonine-protein kinase OSR1 (Homo sapiens) (O95747 2-527 limits assumed): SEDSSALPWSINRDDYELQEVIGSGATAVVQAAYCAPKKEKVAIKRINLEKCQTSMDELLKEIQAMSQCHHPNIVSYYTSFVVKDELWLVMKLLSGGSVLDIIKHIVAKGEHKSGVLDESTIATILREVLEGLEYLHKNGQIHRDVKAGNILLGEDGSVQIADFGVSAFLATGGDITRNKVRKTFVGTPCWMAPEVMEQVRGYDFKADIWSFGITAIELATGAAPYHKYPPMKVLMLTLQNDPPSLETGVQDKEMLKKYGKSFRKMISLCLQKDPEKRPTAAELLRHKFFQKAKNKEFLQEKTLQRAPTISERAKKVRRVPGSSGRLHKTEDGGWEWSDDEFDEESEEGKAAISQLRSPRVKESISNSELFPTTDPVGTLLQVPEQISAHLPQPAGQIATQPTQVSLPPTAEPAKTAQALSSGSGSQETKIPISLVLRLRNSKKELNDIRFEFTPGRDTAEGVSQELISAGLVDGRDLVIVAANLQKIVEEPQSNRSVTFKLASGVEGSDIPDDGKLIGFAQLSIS

`Cc1cc(C)cc([C@@H]2c3cc(C)ccc3NC(=O)CN2C(=O)c2ccc(Br)s2)c1`: the % of activity in test [1] (at 1 µM) was determined as 99.3%; in test [1] (at 10 µM) it was 104%.
For `O=C(NOC[C@H](O)CO)c1ccc(F)c(F)c1Nc1ccc(I)cc1F`, the results for the % of control in test [2] and in test [3] were 100% and 86%, respectively.
Take `CC(C)(O)[C@H](F)CN1Cc2cc(NC(=O)c3cnn4cccnc34)c(N3CCOCC3)cc2C1=O`: the % of inhibition in test [4] came to 74.5%. Moreover, in test [5], the dTM is -0.5 K.
For the compound `CC[C@@H]1[C@H](F)C(=O)N[C@@H]1COc1nccc2cc(C(N)=O)c(OC)cc12` [ZIMLOVISERTIB], in test [6], the % of inhibition was -8.5%.
As to `C=CC(=O)Nc1cc(-n2c(=O)ccc3cnc4ccc(-c5ccc(NS(C)(=O)=O)cc5)cc4c32)ccc1C`, the % of control in test [7] (at 1 µM) and in test [7] (at 10 µM) was 100% each time.

For the origin of these results see ChEMBL document CHEMBL5465560, “Selectivity Literature for EUbOPEN Chemogenomic Library” (2024).
